In patent publication US20100061982A1, “3-SUBSTITUTED-1H-INDOLE, 3-SUBSTITUTED-1H-PYRROLO[2,3-B]PYRIDINE AND 3-SUBSTITUTED-1H-PYRROLO[3,2-B]PYRIDINE COMPOUNDS, THEIR USE AS MTOR KINASE AND PI3 KINASE INHIBITORS, AND THEIR SYNTHESES” (priority 2008, published 2010):
Values after ≈ are worked out from the molar mass of the structure shown.

How the values were obtained:
mTOR = mTOR (Homo sapiens, UniProt P42345); assay: mTOR Enzyme Assay (DELFIA, purified enzyme); assay type: biochemical; parameters: FLAG; details: read-out: mTOR Mean IC50
[1] = Microsome Stability (15 min), human; assay type: in vitro ADME; details: microsomes, Phase I (NADPH), read-out: Microsome Stability (15 min) T ½ Phase I human
PI3K alpha = PI3K alpha (Homo sapiens, UniProt P42336); assay: PI3K-alpha Fluorescence Polarization Assay; assay type: biochemical
Chain of PI3K alpha (P42336 whole entry, species assumed): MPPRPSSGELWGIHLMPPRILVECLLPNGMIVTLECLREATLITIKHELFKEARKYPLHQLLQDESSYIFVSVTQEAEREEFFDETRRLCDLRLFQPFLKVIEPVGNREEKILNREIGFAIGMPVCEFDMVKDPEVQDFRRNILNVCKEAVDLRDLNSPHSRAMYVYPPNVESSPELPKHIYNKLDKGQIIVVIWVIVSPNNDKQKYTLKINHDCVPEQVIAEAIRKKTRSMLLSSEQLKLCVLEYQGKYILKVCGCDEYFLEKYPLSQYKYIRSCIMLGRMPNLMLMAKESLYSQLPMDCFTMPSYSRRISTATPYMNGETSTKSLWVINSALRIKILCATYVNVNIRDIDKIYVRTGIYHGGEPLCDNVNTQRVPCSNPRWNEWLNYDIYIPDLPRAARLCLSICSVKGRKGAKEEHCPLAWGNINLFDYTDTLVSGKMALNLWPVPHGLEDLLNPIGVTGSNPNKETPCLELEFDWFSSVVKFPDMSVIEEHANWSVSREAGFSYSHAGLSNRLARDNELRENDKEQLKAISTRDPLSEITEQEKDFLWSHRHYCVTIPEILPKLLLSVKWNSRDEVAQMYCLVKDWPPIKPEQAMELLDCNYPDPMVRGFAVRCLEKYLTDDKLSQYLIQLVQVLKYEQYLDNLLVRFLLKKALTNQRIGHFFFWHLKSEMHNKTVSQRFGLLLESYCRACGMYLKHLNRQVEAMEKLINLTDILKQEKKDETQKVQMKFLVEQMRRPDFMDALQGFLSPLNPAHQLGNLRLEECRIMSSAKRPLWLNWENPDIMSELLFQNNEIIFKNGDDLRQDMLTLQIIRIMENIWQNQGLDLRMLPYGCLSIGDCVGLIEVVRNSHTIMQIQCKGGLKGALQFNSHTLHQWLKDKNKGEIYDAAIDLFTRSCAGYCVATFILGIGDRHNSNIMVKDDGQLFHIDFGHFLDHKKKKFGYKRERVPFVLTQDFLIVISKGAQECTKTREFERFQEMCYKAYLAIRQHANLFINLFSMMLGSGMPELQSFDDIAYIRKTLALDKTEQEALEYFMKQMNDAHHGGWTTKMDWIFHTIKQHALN
Chain of PI3K alpha (P27986 whole entry partner, species assumed): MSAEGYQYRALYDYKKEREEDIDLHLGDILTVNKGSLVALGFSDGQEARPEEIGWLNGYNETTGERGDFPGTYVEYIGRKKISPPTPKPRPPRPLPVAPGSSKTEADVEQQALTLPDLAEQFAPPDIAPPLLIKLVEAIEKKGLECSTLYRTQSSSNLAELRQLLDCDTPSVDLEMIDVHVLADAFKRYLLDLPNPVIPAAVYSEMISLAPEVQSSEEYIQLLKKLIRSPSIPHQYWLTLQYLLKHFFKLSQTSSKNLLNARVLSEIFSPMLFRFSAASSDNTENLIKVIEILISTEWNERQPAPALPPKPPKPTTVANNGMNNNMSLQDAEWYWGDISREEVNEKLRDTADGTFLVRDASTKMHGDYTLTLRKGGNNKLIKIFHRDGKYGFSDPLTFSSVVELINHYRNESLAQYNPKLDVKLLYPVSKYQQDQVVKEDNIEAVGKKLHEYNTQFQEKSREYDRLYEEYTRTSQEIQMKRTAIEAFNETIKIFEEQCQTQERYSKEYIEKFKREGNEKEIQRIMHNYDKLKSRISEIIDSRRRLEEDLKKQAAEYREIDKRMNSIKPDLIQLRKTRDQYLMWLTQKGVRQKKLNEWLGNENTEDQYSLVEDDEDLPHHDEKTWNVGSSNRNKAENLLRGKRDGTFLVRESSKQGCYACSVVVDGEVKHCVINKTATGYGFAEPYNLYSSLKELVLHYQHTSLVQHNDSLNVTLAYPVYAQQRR

[2] = Plasma Stability (37° C.), nude mouse
[3] = Buffer Stability (37° C.)
[4] = Microsome Stability (15 min), nude mouse; assay type: in vitro ADME; details: microsomes, Phase I (NADPH), read-out: Microsome Stability (15 min) T ½ Phase I nude mouse
[5] = CACO2 permeability a-b/b-a; assay type: in vitro ADME; details: human, Caco-2; for Papp A→B: a − b (first value of cell), read-out: CACO2 Pe a − b; for Papp B→A: b − a (second value of cell), read-out: CACO2 Pe b − a
[6] = Plasma Stability (37° C.), rat
[7] = PAMPA permeability pH 7.4
[8] = Microsome Stability (15 min), rat; assay type: in vitro ADME; details: microsomes, Phase I (NADPH), read-out: Microsome Stability (15 min) T ½ Phase I rat
Solubility pH 7.4 = details: pH 7.4, aqueous buffer
[9] = In vivo blood/plasma and tumor levels of prodrug and metabolites after 50 mg, kg po; details: for plasma prodrug concentration / tumor prodrug concentration: 50 mg

| Structure (SMILES) | IC50 (mTOR) | half-life [1] | IC50 (PI3K alpha) | Plasma Stability (37° C.) % Remaining (3-3.5 hours) nude mouse [2] | Buffer Stability (37° C.) % Remaining (at 16-23 hours) SGF [3] | Buffer Stability (37° C.) % Remaining (at 16-23 hours) SIF [3] | Buffer Stability (37° C.) % Remaining (at 16-23 hours) pH 1 [3] | Buffer Stability (37° C.) % Remaining (at 16-23 hours) pH 4.5 [3] | Buffer Stability (37° C.) % Remaining (at 16-23 hours) pH 6.6 [3] | Buffer Stability (37° C.) % Remaining (at 16-23 hours) pH 7.4 [3] | Buffer Stability (37° C.) % Remaining (at 16-23 hours) pH 9 [3] | half-life [4] | Papp A→B [5] | Papp B→A [5] | Plasma Stability (37° C.) % Remaining (3-3.5 hours) rat [6] | PAMPA Pe [7] | half-life [8] | other results |
| --- | --- | --- | --- | --- | --- | --- | --- | --- | --- | --- | --- | --- | --- | --- | --- | --- | --- | --- |
| CN(C)C(=O)Oc1cc(OC(=O)N(C)C)c2c(c1)O/C(=C\c1cn(C)c3nccc(-c4ccccc4)c13)C2=O [Example 43, (2Z)-2-[(1-methyl-4-phenyl-1H-pyrrolo[2,3-b]pyridin-3-yl)methylene]-3-oxo-2,3-dihydro-1-benzofuran-4,6-diyl bis(dimethylcarbamate)] | > 4 µM | 11 min | > 10 µM | 52% | 100% | 100% | 100% | 100% | 100% | 100% | 100% | 12 min | 2.2 ×10⁻⁶ cm/s | 1 ×10⁻⁶ cm/s | 54% | Undetected |  |  |
| COc1ccc2c(c1)c(/C=C1\Oc3cc(OC(=O)N(C)c4ccccc4)ccc3C1=O)c(C)n2CCN1CCN(C)CC1 [Example 46, (2Z)-2-({5-methoxy-2-methyl-1-[2-(4-methylpiperazin-1-yl)ethyl]-1H-indol-3-yl}methylene)-3-oxo-2,3-dihydro-1-benzofuran-6-yl methyl(phenyl)carbamate] | > 4 µM |  |  | 19% | 98% | 100% | 101% | 99% | 98% | 97% | 96% |  |  |  | 22% | Undetected | 10 min |  |
| CN(C)C(=O)Oc1cccc2c1C(=O)/C(=C/c1cn(C)c3nccc(N4CC5CCC(C4)O5)c13)O2 [Example 44, (2Z)-2-{[1-methyl-4-(8-oxa-3-azabicyclo[3.2.1]oct-3-yl)-1H-pyrrolo[2,3-b]pyridin-3-yl]methylene}-3-oxo-2,3-dihydro-1-benzofuran-4-yl dimethylcarbamate] | 0.031 µM | 8 min | 2.49 µM | 64% | 102% | 100% | 102% | 100% | 100% | 100% | 100% | 4 min |  |  | 51% | Undetected | 3 min |  |
| COc1ccc2c(c1)c(/C=C1\Oc3cc(OC(=O)N(C(C)C)C(C)C)ccc3C1=O)c(C)n2CCN1CCN(C)CC1 [Example 47, (2Z)-2-({5-methoxy-2-methyl-1-[2-(4-methylpiperazin-1-yl)ethyl]-1H-indol-3-yl}methylene)-3-oxo-2,3-dihydro-1-benzofuran-6-yl diisopropylcarbamate] | > 4 µM |  | > 10 µM | 82% | 98% | 94% | 97% | 100% | 95% | 100% | 96% |  |  |  | 92% | Undetected | 16 min |  |
| COc1ccc2c(c1)c(/C=C1\Oc3cc(OC(=O)N(C)C)cc(OC(=O)N(C)C)c3C1=O)cn2CCCN(C)C [Example 8, (2Z)-2-({1-[3-(dimethylamino)propyl]-5-methoxy-1H-indol-3-yl}methylene)-3-oxo-2,3-dihydro-1-benzofuran-4,6-diyl bis(dimethylcarbamate)] |  | 15 min | > 10 µM | 7% | 100% | 100% | 100% | 100% | 100% | 100% | 91% | 23 min | 4.82 ×10⁻⁶ cm/s | 7.22 ×10⁻⁶ cm/s | 50% | 4.53 10e−6 cm/s | > 30 min | solubility (Solubility pH 7.4): 28 µg/mL (≈ 50.9 µM); plasma prodrug concentration ([9]; 0.5 h): 3122, ng, ml; tumor prodrug concentration ([9]; 0.5 h): 2170, ng, ml; plasma prodrug concentration ([9]; 2 h): 3876, ng, ml; tumor prodrug concentration ([9]; 2 h): 4820, ng, ml; tumor prodrug concentration ([9]; 6 h): 1482, ng, ml; plasma prodrug concentration ([9]; 6 h (third value)): 2170, ng, ml; plasma prodrug concentration ([9]; 10 h): 497 ng, ml; tumor prodrug concentration ([9]; 10 h): 556 ng, ml; plasma prodrug concentration ([9]; 24 h): 3 ng, ml; tumor prodrug concentration ([9]; 24 h): bql; blood 4-OH, 6-OR mono prodrug concentration (metabolite) ([9]; prodrug 50 mg, 24 h): bql; blood 6-OH, 4-OR mono prodrug concentration (metabolite) ([9]; prodrug 50 mg, 24 h): bql; tumor 4-OH, 6-OR mono prodrug concentration (metabolite) ([9]; prodrug 50 mg, 24 h): bql; tumor 6-OH, 4-OR mono prodrug concentration (metabolite) ([9]; prodrug 50 mg, 24 h): bql; blood precursor phenolic cpd concentration (metabolite) ([9]; prodrug 50 mg, all time points (0.5, 2, 6, 10, 24 h)): bql at all |
